Measurements reported in US20080280877A1, “Azetidines” (Pfizer Inc, priority 2007, published 2008).

Each compound was assayed against T1, recombinant human EP-2 receptor (Homo sapiens, UniProt P43116) (assay: in vitro antagonist potency against recombinant human EP-2 receptor in CHO cells (cAMP, Protocol 1)). Settings: functional Ki by Cheng-Prusoff from IC50; CHO cells stimulated with PGE2 (5 nM); cAMP readout; read-out: EP2 Ki.
T1 construct: cell line stably transfected with full length cDNA encoding human Prostaglandin E2 was established; expressed in transfected cells; host or cells: CHO (Chinese hamster ovary) cells, stably transfected
T1 sequence (P43116 whole entry): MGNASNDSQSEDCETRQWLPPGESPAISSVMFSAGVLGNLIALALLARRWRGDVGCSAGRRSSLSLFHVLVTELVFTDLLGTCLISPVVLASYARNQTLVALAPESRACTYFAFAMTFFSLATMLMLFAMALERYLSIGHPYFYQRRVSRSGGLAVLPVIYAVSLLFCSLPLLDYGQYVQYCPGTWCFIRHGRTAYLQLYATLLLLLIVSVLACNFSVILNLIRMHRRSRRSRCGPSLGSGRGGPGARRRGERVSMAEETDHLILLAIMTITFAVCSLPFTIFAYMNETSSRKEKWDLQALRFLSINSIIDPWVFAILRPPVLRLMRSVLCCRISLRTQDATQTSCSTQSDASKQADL
Format: cell-based
Source text: 1.0 Measurement of in vitro Antagonist Potency (IC50) of Compounds Against Recombinant Human Prostaglandin E2 Receptor in CHO Cells
The prostaglandin E2 (EP-2) receptor is Gs coupled and agonism of the receptor by PGE2 results in activation of intracellular adenylate cyclase enzymes that synthesise the second messenger signalling molecule, adenosine 3′,5′-cyclic monophosphate (cAMP). […] Decreases in cAMP levels following treatment of stimulated recombinant EP-2 cells with potential antagonist compounds were measured and potency (IC50) calculated as follows. A Chinese hamster ovary (CHO) cell line stably transfected with full length cDNA encoding human Prostaglandin E2 was established using standard molecular biology methods. Test compounds were dissolved in dimethyl sulphoxide (DMSO) at 4 mM. 11 point half log unit increment dilution series of test compound were prepared in DMSO then diluted 1 in 40 in a buffer comprised of phosphate buffered saline (PBS) and 0.05% pluronic F-127 surfactant. Freshly cultured cells at 80-90% confluence were harvested and re-suspended in 90% growth media/10% DMSO. The cells were frozen using a planar freezer and stored in frozen aliquots in cryovials in liquid nitrogen until the day of the experiment. A vial of cells was defrosted in a 37° C. water bath for 2 min, then transferred to 10 ml of Dulbecco's Modified Eagle's Medium (DMEM). The cells were then centrifuged for 5 min at 1000 g and the pellet re-suspended at 1,000,000 cells/ml in DMEM. 5,000 cells (5 ul) were added to 5 ul of the compound dilution series in a 384 well assay plate and pre-incubated for 30 min at 37° C. 5 ul of agonist (15 nM PGE2 in PBS to give 5 nM FAC) was added and plates further incubated for 90 min at 37° C. The relative cAMP concentration in each well was then measured using a ? -galactosidase enzyme fragment complementation method purchased in kit form as the Discoverx cAMP II kit from GE Healthcare, UK. […] Sigmoidal curves were fitted to plots of log10 inhibitor concentration vs. percent effect. IC50 estimates were determined as the concentration of test compound giving an effect half way between the bottom and top asymptotes of the sigmoidal dose response curve. Each experiment included an IC50 determination for the literature compound as a standard to track assay consistency and allow fair comparison between values obtained in different experiments. The EC50 of PGE2 is used in combination with the ligand concentration in the assay to determine Ki values for antagonist dose responses using the Cheng-Prusoff equation. Consequently an agonist dose response curve is carried out for each experiment using the same incubation as the antagonist plate.

Ki [nM] | Structure (SMILES)
22.5 | O=C(c1ccc(F)cc1)N1CC(COc2ccc(-c3ccccc3Cl)cc2)(C(=O)O)C1 [Example 39, 3-{[(2′-Chlorobiphenyl-4-yl)oxy]methyl}-1-(4-fluorobenzoyl)azetidine-3-carboxylic acid]
776 | COc1ccc2cc(OCC3(C(=O)NS(C)(=O)=O)CN(C(=O)c4ccc(F)cc4)C3)ccc2c1 [Example 50, 1-(4-Fluorobenzoyl)-3-{[(6-methoxy-2-naphthyl)oxy]methyl}-N-(methylsulfonyl)azetidine-3-carboxamide]
182 | COc1ccc2cc(OCC3(C#N)CN(C(=O)c4ccc(F)cc4)C3)ccc2c1 [Example 52, 1-(4-Fluorobenzoyl)-3-{[(6-methoxy-2-naphthyl)oxy]methyl}azetidine-3-carbonitrile]
748 | CSc1ccc(NC(=O)N2CC(COc3ccc(C)c4c3CCC4)(C(=O)O)C2)cc1 [Example 72]
114 | O=C(c1ccccc1)N1CC(COc2ccc(-c3ccccc3)cn2)(C(=O)O)C1 [Example 49]
24.4 | COc1ccc2cc(OCC3(C(=O)O)CN(C(=O)c4ccccc4)C3)ccc2c1 [Example 20]
206 | Cc1nc2ccc(OCC3(C(=O)O)CN(C(=O)c4ccc(F)cc4)C3)cc2s1 [Example 30]
7 | Cc1ccc(-c2ccc(OCC3(C(=O)O)CN(C(=O)c4ccc(F)cc4)C3)cc2)cc1 [Example 15]
587 | CCCOc1ccc(OCC2(C(=O)O)CN(C(=O)Nc3cc(C)cc(C)c3)C2)cc1 [Example 71]
0.9 | N#Cc1ccc(-c2ccc(OCC3(C(=O)O)CN(C(=O)c4ccc(Cl)cc4)C3)cc2)cc1 [Example 1, 1-(4-Chlorobenzoyl)-3-{[(4′-cyanobiphenyl-4-yl)oxy]methyl}azetidine-3-carboxylic acid]
